How the values were obtained:
[1] = in terms of human activity and metabolism; cited from earlier work
[2] = test system: NKIR-transduced xenografts (HEK 293-NKIR) versus non-transduced xenografts (HEK 293-WT); assay: PET imaging of 64Cu-labeled NK1R ligand conjugate in tumor xenograft mice (ROI activity, % ID/mL); type: in vivo, athymic nude mice; settings: intravenous
Protocol: A NK-1 receptor-binding radionuclide delivery conjugate was prepared that contained NK1RL, a PEG2 linker, and ^64Cu-labeled chelator (radiochemical purity: 99%) with Specific Activity (SA) of 3.7 MBq/μg. Four NKIR-transduced xenografts (HEK 293-NKIR) were prepared, as well as four non-transduced xenografts (HEK 293-WT) using athymic nude mice. Doses of 140-160 uCi (˜[…]) of ligand per mouse were intravenously administered, and the models were imaged at 1, 4 and 20 hours post-injection using PET. The images were analyzed in a region of interest (ROI) around the tumor xenograft activity, and percentage injected dose per mL (% ID/mL) values were calculated from the mean activity in the ROIs. FIG. 8A is a plot showing ROI activity for the NK1R-transduced and non-transduced xenografts. […] FIG. 8B is a plot showing the ^64Cu—NK1R ligand uptake ratio between the NK1R-transduced and non-transduced xenografts in various areas at 20 hours post-injection.

| SMILES | biological half-life [1] [day] | accumulation in NK1R-transduced versus non-transduced xenografts (ROI activity) ([2]; PET at 1, 4 and 20 hours post-injection, HEK 293-NKIR and HEK 293-WT xenografts) | time post-injection at which the ratio between NK1R-transduced and non-transduced xenografts was highest ([2]; PET imaged at 1, 4 and 20 hours post-injection) [h] |
| --- | --- | --- | --- |
| [99Tc] [^99mTc, technetium-99m] | 1 |  |  |
| O=C(O)CN1CCN(CC(=O)O)CCN(CC(=O)NCCOCCOCCNC(=O)CN2CCC[C@H](OCc3cc(C(F)(F)F)cc(C(F)(F)F)c3)[C@@H]2c2ccccc2)CC1 [NK1RL-PEG2-NOTA-^64Cu conjugate, metal not drawn] |  | specifically accumulated in NK1R-transduced xenografts, but not in non-transduced murine model xenografts | 20 |

From US11141494B2, “Development of neurokinin-1 receptor-binding agent delivery conjugates” (PURDUE RESEARCH FOUNDATION, priority 2014, dated 2021)
